Measured values from patent US20080145858A1, “DETECTION AND IDENTIFICATION OF TOXICANTS BY MEASUREMENT OF GENE […]” (priority 2003, published 2008).

System: Xenopus laevis embryos (stage 8 and stage 15)
Experiment: Verification of microarray analysis by RT-PCR with biotinylated primers
Type: in vivo
Conditions: for expression of genes of ESTs PBX0135A08 and PBX013409: microarray and RT-PCR in agreement
Description: Up-regulation of the clone Nos. PBX0135A08 and PBX0134E09 (underlined and shaded genes in Table 1, Panel A) were verified by RT-PCR of the genes. […] The DNA product obtained by RT-PCR using biotinylated primers of clone No. PBX0135A08 was separated by 1% agarose gel electophoresis and visualized by ethidium bromide staining (FIG. 3, Panel A). The DNA fragments were blotted to a nitrocellulose membrane and visualized by a streptavidin-horseradish peroxidase/ECL system (FIG. 3, Panel B). Though a single band for each reaction was visible in the ethidium bromide stained gel (FIG. 3, Panel A), multiple bands were obtained by the ECL system (FIG. 3, Panel B). When the biotin-labeled DNA in the gel was depurinated and denaturated by treatment with 0.25 M HCl followed by 1.5 M NaCl/0.56 N NaOH, the major 380 bp species were efficiently transferred and similar pattern to that observed using the ECL method was obtained (FIG. 3, Panel C). The effect was also observed with RT-PCR of clone No. PBX0134E09. mRNA levels of clones No. PBX0135A08 and No. PBX013409 increased after PMA treatment at stage 8 (Table 2).
In FIG. 3 the DNA products were obtained from 2 independent RT-PCR reactions using mRNA from untreated blastula stage 8 embryos (lanes 1 and 2), PMA-treated cleavage stage 8 embryos (lanes 3 and 4), untreated neurula stage 15 embryos (lanes 5 and 6), and PMA-treated neurula stage 15 embryos (lane 7 and 8). The 380 bp biotin-labeled DNA fragments were separated by gel electrophoresis on 1% agarose gel without further treatment (panel A and B) or following depurination and denaturation (panel C). In panel A, the DNA was detected by ultraviolet light following ethidium bromide staining. In panels B and C, the DNA was transferred to nitrocellulose membrane and detected by streptavidin-horseradish peroxidase ECL.

CCCCCCCCCCCCCC(=O)O[C@@H]1[C@@H](C)[C@@]2(O)[C@@H](C=C(CO)C[C@]3(O)C(=O)C(C)=C[C@@H]23)[C@@H]2C(C)(C)[C@]12OC(C)=O [PMA, phorbol 12-myristate 12-acetate]
expression of genes of ESTs PBX0135A08 and PBX013409 (cleavage embryos, stage 8): highly up-regulated | expression of genes of ESTs PBX0135A08 and PBX013409 (embryos undergoing neurulation, stage 15): unaffected | % increase of mRNA expression by RT-PCR (gene PBX0135A08, Stage 8): 260% of control | % increase of mRNA expression by RT-PCR (gene PBX0135A08, Stage 15): no change | % increase of mRNA expression by RT-PCR (gene PBX013409, Stage 8, not detected in control but strong band after PMA treatment): highly induced^b | % increase of mRNA expression by RT-PCR (gene PBX013409, Stage 15): no change
